PubChem BioAssay (NCI)
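A five-concentration, 48-hour dose response in 96-well plates underlies each endpoint, interpolated linearly between surrounding concentrations. Abbreviation: GI50, concentration required for 50% inhibition of growth. TGI: concentration producing complete growth inhibition.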

Experiments:
Assay in all cases: growth of human tumour cells (NCI), 48 h
EKVX NSCLC = system: EKVX NSCLC
IGROV1 ovarian = system: IGROV1 ovarian
A498 renal = system: A498 renal
MDA-MB-231 breast = system: MDA-MB-231 breast
RXF 393 renal = system: RXF 393 renal
HCT-116 colon = system: HCT-116 colon
CCRF-CEM leukemia = system: CCRF-CEM leukemia
CAKI-1 renal = system: CAKI-1 renal
HOP-92 NSCLC = system: HOP-92 NSCLC
NCI-H226 lung = system: NCI-H226 lung
UO-31 renal = system: UO-31 renal
K-562 leukemia = system: K-562 leukemia
U251 CNS = system: U251 CNS
HT29 colon = system: HT29 colon
OVCAR-5 ovarian = system: OVCAR-5 ovarian
DU-145 prostate = system: DU-145 prostate
SF-295 CNS = system: SF-295 CNS
HL-60(TB) leukemia = system: HL-60(TB) leukemia
T-47D breast = system: T-47D breast
OVCAR-4 ovarian = system: OVCAR-4 ovarian
UACC-62 melanoma = system: UACC-62 melanoma
SK-OV-3 ovarian = system: SK-OV-3 ovarian
SK-MEL-2 melanoma = system: SK-MEL-2 melanoma
UACC-257 melanoma = system: UACC-257 melanoma
HCC-2998 colon = system: HCC-2998 colon
NCI-H23 lung = system: NCI-H23 lung
NCI/ADR-RES ovarian = system: NCI/ADR-RES ovarian
MCF7 breast = system: MCF7 breast
SNB-75 CNS = system: SNB-75 CNS
OVCAR-3 ovarian = system: OVCAR-3 ovarian
BT-549 breast = system: BT-549 breast
RPMI-8226 leukemia = system: RPMI-8226 leukemia
OVCAR-8 ovarian = system: OVCAR-8 ovarian
SK-MEL-5 melanoma = system: SK-MEL-5 melanoma
MALME-3M melanoma = system: MALME-3M melanoma
SW-620 colon = system: SW-620 colon
HS 578T breast = system: HS 578T breast
ACHN renal = system: ACHN renal
MDA-MB-435 = system: MDA-MB-435
SK-MEL-28 melanoma = system: SK-MEL-28 melanoma
NCI-H460 lung = system: NCI-H460 lung
HOP-62 NSCLC = system: HOP-62 NSCLC
SF-539 CNS = system: SF-539 CNS
M14 melanoma = system: M14 melanoma
HCT-15 colon = system: HCT-15 colon
COLO 205 colon = system: COLO 205 colon
PC-3 prostate = system: PC-3 prostate
KM12 colon = system: KM12 colon
TK-10 renal = system: TK-10 renal
A549 NSCLC = system: A549 NSCLC
SF-268 CNS = system: SF-268 CNS
LOX IMVI melanoma = system: LOX IMVI melanoma
SNB-19 CNS = system: SNB-19 CNS
NCI-H522 lung = system: NCI-H522 lung
SN12C renal = system: SN12C renal
786-0 renal = system: 786-0 renal

With `C=C(CN1CCN(c2cc(C(F)(F)F)cc(C(F)(F)F)c2)CC1)c1ccc(C(=O)Nc2ccccc2N)cc1` the GI50 (EKVX NSCLC) was 11.7 µM, the TGI (EKVX NSCLC) was 58.6 µM and the GI50 (IGROV1 ovarian) was 4.2 µM. It also gave a TGI (IGROV1 ovarian) of 27.3 µM, a GI50 (A498 renal) of 2040 nM and a TGI (A498 renal) of 14.4 µM. The GI50 (MDA-MB-231 breast) was 1060 nM, the TGI (MDA-MB-231 breast) was 17.9 µM and the GI50 (RXF 393 renal) was 2020 nM. The TGI (RXF 393 renal) was 7.71 µM, the GI50 (HCT-116 colon) was 3.67 µM and the TGI (HCT-116 colon) was > 100 µM. For the same compound, the GI50 (CCRF-CEM leukemia) was 1490 nM, the TGI (CCRF-CEM leukemia) was 6.51 µM and the GI50 (CAKI-1 renal) was 2810 nM. The TGI (CAKI-1 renal) was 42.3 µM, the GI50 (HOP-92 NSCLC) was 1880 nM and the TGI (HOP-92 NSCLC) was 7.45 µM. The GI50 (NCI-H226 lung) was 9.89 µM, the TGI (NCI-H226 lung) was > 100 µM and the GI50 (UO-31 renal) was 5.57 µM. The TGI (UO-31 renal) was > 100 µM, the GI50 (K-562 leukemia) was 1690 nM and the TGI (K-562 leukemia) was > 100 µM. The GI50 (U251 CNS) was 10.1 µM, the TGI (U251 CNS) was > 100 µM and the GI50 (HT29 colon) was 1910 nM. The TGI (HT29 colon) was 4.75 µM, the GI50 (OVCAR-5 ovarian) was 54.6 µM and the TGI (OVCAR-5 ovarian) was > 100 µM. The GI50 (DU-145 prostate) was 5.4 µM, the TGI (DU-145 prostate) was > 100 µM and the GI50 (SF-295 CNS) was 7.29 µM. The TGI (SF-295 CNS) was 62 µM, the GI50 (HL-60(TB) leukemia) was 1050 nM and the TGI (HL-60(TB) leukemia) was > 100 µM. For the same compound, the GI50 (T-47D breast) was 8.97 µM, the TGI (T-47D breast) was > 100 µM and the GI50 (OVCAR-4 ovarian) was 2530 nM. The TGI (OVCAR-4 ovarian) was 9.9 µM, the GI50 (UACC-62 melanoma) was 4.21 µM and the TGI (UACC-62 melanoma) was > 100 µM. The GI50 (SK-OV-3 ovarian) was 25.7 µM, the TGI (SK-OV-3 ovarian) was > 100 µM and the GI50 (SK-MEL-2 melanoma) was 10.2 µM. For the same compound, the TGI (SK-MEL-2 melanoma) was > 100 µM, the GI50 (UACC-257 melanoma) was 6.57 µM and the TGI (UACC-257 melanoma) was 64.9 µM. The GI50 (HCC-2998 colon) was 4.28 µM, the TGI (HCC-2998 colon) was 26.4 µM and the GI50 (NCI-H23 lung) was 14.2 µM. For the same compound, the TGI (NCI-H23 lung) was 72.1 µM, the GI50 (NCI/ADR-RES ovarian) was 5.82 µM and the TGI (NCI/ADR-RES ovarian) was > 100 µM. For the same compound, the GI50 (MCF7 breast) was 839 nM, the TGI (MCF7 breast) was 21.8 µM and the GI50 (SNB-75 CNS) was 3.44 µM. The TGI (SNB-75 CNS) was 18.5 µM, the GI50 (OVCAR-3 ovarian) was 3.18 µM and the TGI (OVCAR-3 ovarian) was 21.2 µM. For the same compound, the GI50 (BT-549 breast) was 5.04 µM, the TGI (BT-549 breast) was 24.6 µM and the GI50 (RPMI-8226 leukemia) was 1650 nM. The TGI (RPMI-8226 leukemia) was 4.22 µM, the GI50 (OVCAR-8 ovarian) was 9.55 µM and the TGI (OVCAR-8 ovarian) was > 100 µM. It also gave a GI50 (SK-MEL-5 melanoma) of 2280 nM, a TGI (SK-MEL-5 melanoma) of 10.8 µM and a GI50 (MALME-3M melanoma) of 13.8 µM. For the same compound, the TGI (MALME-3M melanoma) was 47.9 µM, the GI50 (SW-620 colon) was 6.95 µM and the TGI (SW-620 colon) was 34.9 µM. It also gave a GI50 (HS 578T breast) of 4.81 µM, a TGI (HS 578T breast) of 35.6 µM and a GI50 (ACHN renal) of 5.81 µM. For the same compound, the TGI (ACHN renal) was > 100 µM, the GI50 (MDA-MB-435) was 1840 nM and the TGI (MDA-MB-435) was 4.88 µM. For the same compound, the GI50 (SK-MEL-28 melanoma) was 3.68 µM, the TGI (SK-MEL-28 melanoma) was 15.9 µM and the GI50 (NCI-H460 lung) was 4.09 µM. The TGI (NCI-H460 lung) was > 100 µM, the GI50 (HOP-62 NSCLC) was 16.2 µM and the TGI (HOP-62 NSCLC) was > 100 µM. The GI50 (SF-539 CNS) was 18 µM, the TGI (SF-539 CNS) was > 100 µM and the GI50 (M14 melanoma) was 3.76 µM. The TGI (M14 melanoma) was > 100 µM, the GI50 (HCT-15 colon) was 3.96 µM and the TGI (HCT-15 colon) was > 100 µM. It also gave a GI50 (COLO 205 colon) of 7.11 µM, a TGI (COLO 205 colon) of 52.6 µM and a GI50 (PC-3 prostate) of 2920 nM. The TGI (PC-3 prostate) was 31 µM, the GI50 (KM12 colon) was 3.47 µM and the TGI (KM12 colon) was 21.8 µM. The GI50 (TK-10 renal) was 12.3 µM, the TGI (TK-10 renal) was > 100 µM and the GI50 (A549 NSCLC) was 19 µM. For the same compound, the TGI (A549 NSCLC) was > 100 µM, the GI50 (SF-268 CNS) was 8.12 µM and the TGI (SF-268 CNS) was > 100 µM. For the same compound, the GI50 (LOX IMVI melanoma) was 2340 nM, the TGI (LOX IMVI melanoma) was > 100 µM and the GI50 (SNB-19 CNS) was 14 µM. The TGI (SNB-19 CNS) was > 100 µM, the GI50 (NCI-H522 lung) was 5.21 µM and the TGI (NCI-H522 lung) was > 100 µM. The GI50 (SN12C renal) was 2470 nM, the TGI (SN12C renal) was 13.4 µM and the GI50 (786-0 renal) was 6.77 µM. It also gave a TGI (786-0 renal) of 86.5 µM.
